Measurements from ChEMBL document CHEMBL1136668, “Structure-activity relationships of some opiate glycosides” (Bioorg Med Chem Lett, 2003).

Legend:
Mus musculus [1] = assay: Area under the antinociceptive effect time curve after 2 mg/kg administration in mice.; format: functional
Mu-type opioid receptor [2] = molecular target: T1, Mu-type opioid receptor (Rattus norvegicus, UniProt P33535); assay: mu-2 receptor binding affinity in rat brain by 3H [d-Ala2, (N-Me)Phe4, Gly5-ol] enkephalin displacement.; format: tissue-based
Mus musculus [3] = assay: Area under the antinociceptive effect time curve after 4 mg/kg administration in mice.; format: functional
Mu-type opioid receptor [4] = molecular target: T1, Mu-type opioid receptor; assay: mu-1 receptor binding affinity in rat brain by 3H [d-Ala2, d-Leu5] enkephalin displacement.; format: tissue-based
Mus musculus [5] = assay: Area under the antinociceptive effect time curve was determined after administration of 8 mg/kg in mice; format: functional

T1 sequence (P33535 whole entry): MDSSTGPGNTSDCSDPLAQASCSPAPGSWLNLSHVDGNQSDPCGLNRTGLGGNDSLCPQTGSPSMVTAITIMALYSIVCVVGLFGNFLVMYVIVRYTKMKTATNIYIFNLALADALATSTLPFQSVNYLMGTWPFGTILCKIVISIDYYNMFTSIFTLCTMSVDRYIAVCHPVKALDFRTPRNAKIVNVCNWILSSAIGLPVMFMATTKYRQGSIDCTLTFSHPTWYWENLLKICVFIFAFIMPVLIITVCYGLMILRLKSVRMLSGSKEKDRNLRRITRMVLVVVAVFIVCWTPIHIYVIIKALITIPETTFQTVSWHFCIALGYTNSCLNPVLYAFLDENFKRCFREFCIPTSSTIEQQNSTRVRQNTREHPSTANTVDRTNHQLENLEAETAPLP

SMILES | AUEC (Mus musculus [1]) | Ki (Mu-type opioid receptor [2]) | AUEC (Mus musculus [3]) | Ki (Mu-type opioid receptor [4]) | AUEC (Mus musculus [5]) | Activity (Mus musculus [5])
CN1CCC23c4c5ccc(O)c4O[C@H]2[C@@H](OC2OC(C(=O)O)=CC(O)C2O)C=C[C@H]3[C@H]1C5 (some centres undefined) | 651 %·min | 48 nM | 759 A% min-1 | 1.4 nM | 701 A% min-1 | 
CC1OC(O[C@H]2C=C[C@H]3[C@H]4Cc5ccc(O)c6c5C3(CCN4C)[C@H]2O6)C(O)C(O)C1O (some centres undefined) | 421 %·min | 6.2 nM | 250 A% min-1 | 0.17 nM |  | 
CN1CC[C@]23c4c5ccc(O)c4O[C@H]2[C@@H](OC2O[C@@H](C(=O)O)CC(O)C2O)C=C[C@H]3[C@H]1C5 (some centres undefined) | 18 %·min | 57 nM | 365 A% min-1 | 1.9 nM |  | 1046 A% min-1
CN1CC[C@]23c4c5ccc(O)c4O[C@H]2[C@@H](OC2OC(CO)[C@H](O)C(O)C2O)C=C[C@H]3[C@H]1C5 (some centres undefined) | 1130 %·min | 3.2 nM | 2283 A% min-1 | 0.28 nM |  | 
CN1CCC23c4c5ccc(O)c4O[C@H]2[C@@H](OC2OC(CO)[C@H](O)C(O)C2O)C=C[C@H]3[C@H]1C5 (some centres undefined) | 682 %·min | 4.8 nM | 686 A% min-1 | 1.2 nM | 2397 A% min-1 | 
CN1CC[C@]23c4c5ccc(O)c4O[C@H]2[C@@H](O[C@@H]2O[C@H](C(=O)O)C[C@H](O)[C@@H]2O)C=C[C@H]3[C@H]1C5 | 35 %·min | 172 nM | 80 A% min-1 | 0.6 nM | 380 A% min-1 | 
CN1CCC23c4c5ccc(O)c4O[C@H]2[C@@H](O[C@@H]2O[C@@H](CO)[C@@H](O)[C@H](O)[C@@H]2O)CC[C@H]3[C@H]1C5 | 1490 %·min | 2.5 nM | 2701 A% min-1 | 0.21 nM |  | 
CN1CCC23c4c5ccc(O)c4O[C@H]2[C@@H](O[C@@H]2O[C@@H](C(=O)O)[C@@H](O)[C@H](O)[C@@H]2O)CC[C@H]3[C@H]1C5 | 1667 %·min | 5.7 nM | 1885 A% min-1 | 0.25 nM |  | 
O=C(O)[C@@H]1O[C@@H](O[C@H]2C=C[C@H]3[C@H]4Cc5ccc(O)c6c5C3(CCN4CC3CC3)[C@H]2O6)[C@@H](O)[C@@H](O)[C@@H]1O | 126 %·min | 3.5 nM | 599 A% min-1 | 0.06 nM | 266 A% min-1 | 
CN1CCC23c4c5ccc(O)c4O[C@H]2[C@@H](O[C@@H]2O[C@H](C(=O)O)[C@@H](O)[C@H]2O)C=C[C@H]3[C@H]1C5 | -56 %·min | 44 nM | 797 A% min-1 | 1.6 nM | 596 A% min-1 | 
CN1CCC23c4c5ccc(O)c4O[C@H]2[C@@H](OC2C=CC(O)C(C(=O)O)O2)C=C[C@H]3[C@H]1C5 (some centres undefined) | 491 %·min | 178 nM | 130 A% min-1 | 3.2 nM |  | 851 A% min-1
O=C(O)[C@@H]1O[C@@H](O[C@H]2CC[C@H]3[C@H]4Cc5ccc(O)c6c5[C@@]3(CCN4)[C@H]2O6)[C@@H](O)[C@@H](O)[C@@H]1O | 2196 %·min |  | 2461 A% min-1 |  |  | 
COc1ccc2c3c1O[C@H]1[C@@H](O[C@@H]4O[C@@H](C(=O)O)[C@@H](O)[C@H](O)[C@@H]4O)C=C[C@H]4[C@@H](C2)N(C)CC[C@@]341 |  | 5700 nM |  | 85 nM |  | 
O=C(O)[C@@H]1O[C@@H](O[C@H]2C=C[C@H]3[C@H]4Cc5ccc(O)c6c5[C@@]3(CCN4)[C@H]2O6)[C@@H](O)[C@@H](O)[C@@H]1O | 393 %·min | 37 nM | 1614 A% min-1 | 0.98 nM | 2487 A% min-1 | 
C=CCN1CC[C@]23c4c5ccc(O)c4O[C@H]2[C@@H](O[C@@H]2O[C@@H](C(=O)O)[C@@H](O)[C@H](O)[C@@H]2O)C=C[C@H]3[C@H]1C5 | 221 %·min | 10 nM | 147 A% min-1 | 0.2 nM | 492 A% min-1 | 
O=C(O)CN1CC[C@]23c4c5ccc(O)c4O[C@H]2[C@@H](O[C@@H]2O[C@@H](C(=O)O)[C@@H](O)[C@H](O)[C@@H]2O)C=C[C@H]3[C@H]1C5 | 266 %·min | 1620 nM | 45 A% min-1 | 33 nM | 322 A% min-1 | 
CN1CCC23c4c5ccc(O)c4O[C@H]2[C@@H](OC2CCCC(C(=O)O)O2)C=C[C@H]3[C@H]1C5 (some centres undefined) | 230 %·min | 168 nM | 26 A% min-1 | 0.51 nM | 478 A% min-1 | 
CN1CC[C@]23c4c5ccc(O)c4O[C@H]2[C@@H](O[C@@H]2O[C@H](C(=O)O)[C@@H](O)[C@H](O)[C@H]2O)C=C[C@H]3[C@H]1C5 [MORPHINE GLUCURONIDE] |  | 26 nM | 1359 A% min-1 | 1.5 nM |  | 
CN1CC[C@]23c4c5ccc(O)c4O[C@H]2[C@@H](O)C=C[C@H]3[C@H]1C5 [MORPHINE] |  |  | 1987 A% min-1 |  |  | 
